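These data come from cells grown in 96-well plates and exposed to compound for 48 hours at five concentrations. TGI: concentration producing complete growth inhibition.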
What was measured:
Assay in all cases: inhibition of tumour cell growth, NCI panel, 48 h
[1] = system: SW-620 colon
[2] = system: HCT-15 colon
[3] = system: SNB-75 CNS
[4] = system: OVCAR-4 ovarian
[5] = system: UACC-257 melanoma
[6] = system: RPMI-8226 leukemia
[7] = system: MDA-MB-435
[8] = system: SNB-19 CNS
[9] = system: IGROV1 ovarian
[10] = system: BT-549 breast

| SMILES | TGI [1] | TGI [2] | TGI [3] | TGI [4] | TGI [5] | TGI [6] | TGI [7] | TGI [8] | TGI [9] | TGI [10] |
| --- | --- | --- | --- | --- | --- | --- | --- | --- | --- | --- |
| Clc1ccc(-c2nn3c(CCCCCCCCc4nnc5sc(-c6ccc(Cl)cc6)nn45)nnc3s2)cc1 | > 100 µM | > 100 µM | 75.3 µM | > 64.6 µM | > 95.2 µM | 72.2 µM | > 88 µM | > 87.6 µM | > 100 µM | > 79.5 µM |
| CC(=O)N=C(N=Nc1c(O)[nH]c2ccc(C)cc12)NC(C)=O | > 100 µM | > 100 µM | > 100 µM | > 100 µM | > 100 µM | > 100 µM | > 100 µM | > 100 µM | > 100 µM | > 100 µM |
| Cc1cc2nc3n[nH]c(N)c3nc2cc1C | > 100 µM | > 100 µM | 87.8 µM | > 100 µM | > 100 µM | > 100 µM | > 100 µM | > 100 µM | > 100 µM | > 100 µM |
| CCOP(=O)(OCC)C(NC(=O)OCC(Cl)(Cl)Cl)n1nnc(C(=O)OC)c1C(=O)OC (stereo not given) | > 100 µM | > 100 µM | > 100 µM | > 100 µM | > 100 µM | > 100 µM | > 100 µM | > 100 µM | > 100 µM | > 100 µM |
| COc1c2c(c(OC)c3c1c(=O)c1ccccc1n3C)OCO2 | > 100 µM | > 100 µM | > 100 µM | > 100 µM | > 100 µM | > 100 µM | 6.46 µM | > 100 µM | > 100 µM | > 100 µM |
| Clc1ccc(N=C/C=C/Nc2ccc(Cl)cn2)nc1 | 16.9 µM | 13 µM | 25.7 µM | 25.7 µM | 32.3 µM | 37.1 µM | 27.6 µM | 30.1 µM | 28.9 µM | 31 µM |
| S=c1ssc2c3ssc(=S)c3n(Cc3ccccc3)c12 | > 100 µM | > 100 µM | > 100 µM | > 100 µM | > 100 µM | > 100 µM | > 100 µM | > 100 µM | > 100 µM | > 100 µM |
| CC1=C(/C=C/C(C)=C/C=C/C(C)=C/C(=O)OCC2OC(n3cc(F)c(=O)[nH]c3=O)CC2OC(=O)/C=C(C)/C=C/C=C(C)/C=C/C2=C(C)CCCC2(C)C)C(C)(C)CCC1 (stereo not given) | > 52.5 µM | > 57.1 µM | > 100 µM | > 81.8 µM | > 92.1 µM | 42.6 µM | > 65.8 µM | > 100 µM | 20 µM | > 76.3 µM |
| CCC1(C)C=Cc2c(cc(OC)c3c(=O)c4ccccc4n(C)c23)O1 (stereo not given) | > 10 µM | > 10 µM | > 10 µM | > 10 µM | > 10 µM | > 10 µM | > 10 µM | > 10 µM | > 10 µM | > 10 µM |
| CC(=O)/C(C=Nc1c(C)n(C)n(-c2ccccc2)c1=O)=C(/C)O | > 100 µM | > 100 µM | > 100 µM | > 100 µM | > 100 µM | > 100 µM | > 100 µM | > 100 µM | > 100 µM | > 100 µM |
| c1ccc(N=C2c3ccccc3CN2c2ccccc2)cc1 | > 100 µM | > 100 µM | > 100 µM | > 100 µM | > 100 µM | > 100 µM | > 100 µM | > 100 µM | > 100 µM | > 100 µM |
| COc1ccc(OC)c(C2CCc3nc4nc(N)nc(N)c4cc3C2)c1 (stereo not given) | 9.12 µM | 47.5 µM | 4.1 µM | 4.14 µM | 6.1 µM | 19 µM | 4.09 µM | 6.01 µM | 26.7 µM | 16.6 µM |
| Cc1cc(-c2ccc(C(=O)O)[nH]2)on1 | > 100 µM | > 100 µM | > 100 µM | > 100 µM | > 100 µM | > 100 µM | > 100 µM | > 100 µM | > 100 µM | > 100 µM |
| CCOC(=O)/C(C#N)=C/c1ccc2c(-c3c(OCC)ccc4cc(/C=C(\C#N)C(=O)OCC)ccc34)c(OCC)ccc2c1 | > 100 µM | > 100 µM | > 100 µM | > 100 µM | > 100 µM | > 100 µM | > 100 µM | > 100 µM | > 100 µM | > 100 µM |
| CN(C)c1nc(N(C)C)nc(N(C)C)n1 | > 150 µM | > 150 µM | 149 µM | > 143 µM | > 150 µM | > 150 µM | > 150 µM | > 150 µM | > 135 µM | > 150 µM |
